From patent publication US8178506B2, “Oligomeric compounds and compositions for use in modulation of small non-coding RNAs” (Regulus Therapeutics Inc., priority 2003, dated 2012)
In the oligonucleotide strings, read from the 5' end, every base follows the letter of its sugar. An asterisk marks phosphorothioate; unmarked linkages are phosphodiester. Other units and linkages are bracketed, terminal groups are in braces. A string of capitals states the bases alone. e = 2'-O-(2-methoxyethyl) (MOE); [5mC] = 5-methylcytosine

Assays:
Type in all cases: cell-based, human
preadipocytes = experiment: Caspase assay in preadipocytes; conditions: for Fold Increase over UTC (caspase activity): untreated control set equal to 1.0
Excerpt: The effect of oligomeric compounds of the present invention targeting miRNAs was examined in preadipocytes (Zen-Bio, Inc., Research Triangle Park, N.C.) using the fluorometric caspase assay previously described in Example 11.

leptin = experiment: Leptin secretion by adipocytes (ELISA); conditions: adipocytes, 250 nM oligomeric compound, day nine post-transfection, relative to control (1.0); Table 16
Method: Leptin secretion into the medium in which adipocytes are cultured is measured by protein ELISA. On day nine post-transfection, 96-well plates are coated with a monoclonal antibody to human leptin (R&D Systems, Minneapolis, Minn.) and left at 4° C. overnight. The plates are blocked with bovine serum albumin (BSA), and a dilution of the treated adipoctye medium is incubated in the plate at room temperature for approximately 2 hours. After washing to remove unbound components, a second monoclonal antibody to human leptin (conjugated with biotin) is added. The plate is then incubated with strepavidin-conjugated horse radish peroxidase (HRP) and enzyme levels are determined by incubation with 3, 3′,5,5′-tetramethlybenzidine, which turns blue when cleaved by HRP. The OD450 is read for each well, where the dye absorbance is proportional to the leptin concentration in the cell lysate.
Leptin is also a marker for differentiated adipocytes. In the adipocyte assay, leptin secretion into the media above the differentiated adipocytes was measured by protein ELISA. Cell growth, transfection and differentiation procedures were carried out as described for the Triglyceride accumulation assay (see below). On day nine post-transfection, 96-well plates were coated with a monoclonal antibody to human leptin (R&D Systems, Minneapolis, Minn.) and left at 4° C. overnight. The plates were blocked with bovine serum albumin (BSA), and a dilution of the media was incubated in the plate at RT for 2 hours. After washing to remove unbound components, a second monoclonal antibody to human leptin (conjugated with biotin) was added. The plate was then incubated with strepavidin-conjugated horseradish peroxidase (HRP) and enzyme levels are determined by incubation with 3, 3′, 5,5′-Tetramethlybenzidine, which turns blue when cleaved by HRP. The OD450 was read for each well, where the dye absorbance is proportional to the leptin concentration in the cell lysate. Results are expressed as a percent±standard deviation relative to transfectant-only controls.

follistatin = experiment: Follistatin mRNA expression in HepG2 cells; conditions: for Follistatin (% UTC): HepG2, 100 nM oligomeric compound; for Follistatin mRNA: HepG2 cells, four hours, UTC = 100
IGFBP-1 = IGFBP-1 mRNA expression in HepG2 cells; conditions: for IGFBP-1 (% UTC): HepG2, 100 nM oligomeric compound; for IGFBP1 mRNA: HepG2 cells, four hours, UTC = 100
[1] = Experiment 1, basal (no insulin)
[2] = Experiment 2, 1 nM insulin treated

Substance	caspase activity (preadipocytes)	Leptin (secretion) (leptin)	Follistatin (% UTC) (follistatin; [1])	Follistatin (% UTC) (follistatin; [2])	Fold Increase over UTC (caspase activity) (preadipocytes)	IGFBP-1 (% UTC) (IGFBP-1; [1])	IGFBP-1 (% UTC) (IGFBP-1; [2])	Follistatin mRNA (follistatin; [1])	IGFBP1 mRNA (IGFBP-1; [1])
TGAGCTACAGTGCTTCATCTCA [ISIS 327901] (chemistry not given here) [uniform 2′-MOE PS; targets mir-143]	does not result in a significant increase in caspase activity	–	–	–	–	–	–	–	–
327901 (antisense eT*eG*eA*eG*e[5mC]*eT*eA*e[5mC]*eA*eG*eT*eG*e[5mC]*eT*eT*e[5mC]*eA*eT*e[5mC]*eT*e[5mC]*eA) [compound 327901]	–	1.02	93 % UTC	135 % UTC	2.0 fold over UTC	133 % UTC	135 % UTC	–	–
327931 (antisense eA*eA*e[5mC]*e[5mC]*eA*eT*eA*e[5mC]*eA*eA*e[5mC]*e[5mC]*eT*eA*e[5mC]*eT*eA*e[5mC]*e[5mC]*eT*e[5mC]*eA) [compound 327931]	–	1.12	–	–	1.5 fold over UTC	–	–	–	–
327967 (antisense eA*e[5mC]*eT*eG*eT*eA*e[5mC]*eA*eA*eA*e[5mC]*eT*eA*e[5mC]*eT*eA*e[5mC]*e[5mC]*eT*e[5mC]*eA) [compound 327967]	–	1.22	–	–	1.5 fold over UTC	–	–	–	–
327889 (antisense eG*eT*eG*eG*eT*eA*eA*eT*e[5mC]*e[5mC]*e[5mC]*eT*eG*eG*e[5mC]*eA*eA*eT*eG*eT*eG*eA*eT) [compound 327889]	–	1.05	56 % UTC	72 % UTC	1.1 fold over UTC	56 % UTC	73 % UTC	–	–
327893 (antisense eA*eA*e[5mC]*e[5mC]*eA*e[5mC]*eA*e[5mC]*eA*eA*e[5mC]*e[5mC]*eT*eA*e[5mC]*eT*eA*e[5mC]*e[5mC]*eT*e[5mC]*eA) [compound 327893]	–	1.14	–	–	1.3 fold over UTC	–	–	93	107
327890 (antisense eA*eG*e[5mC]*eA*e[5mC]*eA*eA*eA*e[5mC]*eT*eA*e[5mC]*eT*eA*e[5mC]*e[5mC]*eT*e[5mC]*eA) [compound 327890]	–	1.36	78 % UTC	115 % UTC	1.3 fold over UTC	99 % UTC	88 % UTC	–	–
327922 (antisense eT*e[5mC]*eA*eG*eT*eT*eT*eT*eG*e[5mC]*eA*eT*eG*eG*eA*eT*eT*eT*eG*e[5mC]*eA*e[5mC]*eA) [compound 327922]	–	1.25	57 % UTC	61 % UTC	1.0 fold over UTC	109 % UTC	104 % UTC	–	–
327925 (antisense eT*eA*eG*e[5mC]*eT*eG*eG*eT*eT*eG*eA*eA*eG*eG*eG*eG*eA*e[5mC]*e[5mC]*eA*eA) [compound 327925]	–	1.40	110 % UTC	148 % UTC	2.0 fold over UTC	152 % UTC	166 % UTC	–	–
327905 (antisense e[5mC]*eA*eG*eA*e[5mC]*eT*e[5mC]*e[5mC]*eG*eG*eT*eG*eG*eA*eA*eT*eG*eA*eA*eG*eG*eA) [compound 327905]	–	1.62	104 % UTC	148 % UTC	1.5 fold over UTC	107 % UTC	115 % UTC	–	–
327919 (antisense eG*eA*eA*eA*e[5mC]*e[5mC]*e[5mC]*eA*eG*e[5mC]*eA*eG*eA*e[5mC]*eA*eA*eT*eG*eT*eA*eG*e[5mC]*eT) [compound 327919]	–	1.44	74 % UTC	178 % UTC	1.3 fold over UTC	96 % UTC	154 % UTC	–	–
327888 (antisense eA*eA*eT*eG*e[5mC]*e[5mC]*e[5mC]*e[5mC]*eT*eA*eA*eA*eA*eA*eT*e[5mC]*e[5mC]*eT*eT*eA*eT) [compound 327888]	–	1.38	–	–	1.1 fold over UTC	–	–	–	–
327903 (antisense eA*eA*e[5mC]*eT*eA*eT*eA*e[5mC]*eA*eA*e[5mC]*e[5mC]*eT*eA*e[5mC]*eT*eA*e[5mC]*e[5mC]*eT*e[5mC]*eA) [compound 327903]	–	1.61	60 % UTC	89 % UTC	1.6 fold over UTC	71 % UTC	81 % UTC	–	–
327941 (antisense eA*eA*e[5mC]*e[5mC]*e[5mC]*eA*e[5mC]*e[5mC]*eG*eA*e[5mC]*eA*eG*e[5mC]*eA*eA*eT*eG*eA*eA*eT*eG*eT*eT) [compound 327941]	–	0.54	80 % UTC	68 % UTC	1.3 fold over UTC	83 % UTC	80 % UTC	–	–
327934 (antisense eG*eG*eT*eA*e[5mC]*eA*eA*eT*e[5mC]*eA*eA*e[5mC]*eG*eG*eT*e[5mC]*eG*eA*eT*eG*eG*eT) [compound 327934]	–	1.25	140 % UTC	103 % UTC	2.0 fold over UTC	231 % UTC	244 % UTC	–	–
327885 (antisense eA*e[5mC]*eT*eA*e[5mC]*e[5mC]*eT*eG*e[5mC]*eA*e[5mC]*eT*eG*eT*eA*eA*eG*e[5mC]*eA*e[5mC]*eT*eT*eT*eG) [compound 327885]	–	–	–	–	–	–	–	74	161
